# Legend:
# dopamine (DA) uptake = target: T1, dopamine (DA) uptake (Rattus norvegicus, UniProt P23977); assay: [3H]dopamine uptake into rat striatal synaptosomes; type: biochemical
# T1 construct: from tissue; host or cells: rat striatal synaptosomes
# Procedure: Inhibition of serotonin (5-HT), dopamine (DA) and noradrenaline (NA) uptake in vitro was measured in rat brain synaptosomes using a modification of a previously described protocol (Bøgesø et al., J Med Chem 1985, 28, 1817-1828). In brief, tritium labelled amines were used to measure uptake into synaptosomes from whole rat brain (excluding cerebellum) ([^3H]serotonin), rat striatal synaptosomes ([^3H]dopamine) or into rat cortical synaptosomes [^3H]noradrenalin. The dissected rat brain regions were homogenized in 0.40 M sucrose supplemented with 1 mM nialamid and centrifuged at 1000×g for 10 min. The supernatants were further centrifuged for 30 min at 20.000×g, 4° C. and resuspended in Krebs-Ringer buffer, pH 7.4 supplemented with 0.2 g/l ascorbic acid. Test compounds and membranes were added in 96 well plates and the incubation was started by adding either 10 nM [^3H]serotonin, 12.5 nM [^3H]dopamine or 10 nM [^3H]noradrenalin for 15 min at 37° C. except for [^3 H]dopamine uptake (5 min at 20° C.). Non-specific uptake was defined as uptake in the presence of 10 μM citalopram, 100 μM benttropin or 20 μM talsupram, respectively and accounted for 5-10% of total uptake. Samples were filtered over Whatman GF/C filters and the IC50's were estimated using non-linear regression analysis from at least 8 points dose-response curves with triplicate determinations.
# System A transporters = settings: at 5 mM; cultured rat hepatocytes; cited from earlier work
# [1] = target: T2, D-serine-sensitive Na+-independent transporter in rat cortical membranes (Rattus norvegicus, UniProt P63116); assay: Na+-independent [3H]D-serine uptake into rat cortical membranes (synaptosomes); type: biochemical
# T2 construct: from tissue; host or cells: rat cerebral cortex membranes (P2 synaptosomes), male Wistar rats
# T2 sequence (P63116 1-530): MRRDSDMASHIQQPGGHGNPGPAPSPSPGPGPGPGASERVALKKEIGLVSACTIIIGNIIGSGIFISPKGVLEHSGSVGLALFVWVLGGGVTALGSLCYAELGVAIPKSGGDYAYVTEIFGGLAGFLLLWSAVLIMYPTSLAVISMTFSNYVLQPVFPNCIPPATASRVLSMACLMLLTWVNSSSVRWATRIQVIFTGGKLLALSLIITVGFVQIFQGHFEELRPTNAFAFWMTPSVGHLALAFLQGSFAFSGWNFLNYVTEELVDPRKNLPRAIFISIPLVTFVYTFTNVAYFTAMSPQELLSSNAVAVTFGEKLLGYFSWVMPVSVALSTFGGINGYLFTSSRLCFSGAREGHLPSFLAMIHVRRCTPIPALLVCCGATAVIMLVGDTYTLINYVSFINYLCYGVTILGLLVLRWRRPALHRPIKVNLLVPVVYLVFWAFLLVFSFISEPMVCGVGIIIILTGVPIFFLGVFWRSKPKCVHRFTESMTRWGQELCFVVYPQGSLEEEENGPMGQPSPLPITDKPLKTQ
# T2 sequence (Q794F9 1-527 partner): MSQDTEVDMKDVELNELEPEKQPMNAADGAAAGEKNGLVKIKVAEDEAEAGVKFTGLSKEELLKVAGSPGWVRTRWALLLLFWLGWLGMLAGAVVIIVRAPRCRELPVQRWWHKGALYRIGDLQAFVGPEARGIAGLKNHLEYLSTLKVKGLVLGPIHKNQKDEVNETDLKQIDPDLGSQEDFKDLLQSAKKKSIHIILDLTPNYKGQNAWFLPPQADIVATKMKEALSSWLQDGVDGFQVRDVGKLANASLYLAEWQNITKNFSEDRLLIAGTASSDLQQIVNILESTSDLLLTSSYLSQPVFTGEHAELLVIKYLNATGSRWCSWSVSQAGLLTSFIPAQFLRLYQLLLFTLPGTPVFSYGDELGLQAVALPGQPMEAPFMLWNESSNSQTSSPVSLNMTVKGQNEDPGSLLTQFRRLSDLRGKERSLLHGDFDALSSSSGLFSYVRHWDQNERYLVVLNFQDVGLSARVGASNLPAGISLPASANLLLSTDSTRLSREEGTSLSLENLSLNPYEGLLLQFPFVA
# Procedure: Into cortical membranes: Cortex from male Wistar rats (150-200 g) was homogenized in 0.40 M sucrose and centrifuged at 1000×g for 10 min. […] Test compounds and tissue (1 mg orig. tissue/well) were added to 96 well plates and incubated with [^3H]-D-serine (specific activity=26.8 Ci/mmol, PerkinElmer, Cambridge, U.K.) (100 nM final concentration) for 5 min at 25° C. Samples were filtered on Unifilter GF/B glass fiber (Packard Biosciences, Meriden, Conn., USA) and washed with 3×0.25 mL assay buffer. Measurements of [^3H]-D-serine uptake into whole HEK293 cells expressing human asc-1 were performed in 96 well plates with similar conditions except that the cells were incubated for 15 min with radioligand and washed by dipping twice in cold assay buffer following incubation with radioligand. Accumulated radioactivity was extracted from the cells by adding 200 μL scintillation fluid/well (Ultima Gold, Packard Biosciences) and the plates were counted in a Microplates Scintillation Counter (Packard Biosciences). The D-serine uptake in samples containing test compounds was compared to controls without added compound or controls where transport via the asc-1 was inhibited by addition of e.g. 30 mM L-alanine.
# T1 sequence (P23977 whole entry): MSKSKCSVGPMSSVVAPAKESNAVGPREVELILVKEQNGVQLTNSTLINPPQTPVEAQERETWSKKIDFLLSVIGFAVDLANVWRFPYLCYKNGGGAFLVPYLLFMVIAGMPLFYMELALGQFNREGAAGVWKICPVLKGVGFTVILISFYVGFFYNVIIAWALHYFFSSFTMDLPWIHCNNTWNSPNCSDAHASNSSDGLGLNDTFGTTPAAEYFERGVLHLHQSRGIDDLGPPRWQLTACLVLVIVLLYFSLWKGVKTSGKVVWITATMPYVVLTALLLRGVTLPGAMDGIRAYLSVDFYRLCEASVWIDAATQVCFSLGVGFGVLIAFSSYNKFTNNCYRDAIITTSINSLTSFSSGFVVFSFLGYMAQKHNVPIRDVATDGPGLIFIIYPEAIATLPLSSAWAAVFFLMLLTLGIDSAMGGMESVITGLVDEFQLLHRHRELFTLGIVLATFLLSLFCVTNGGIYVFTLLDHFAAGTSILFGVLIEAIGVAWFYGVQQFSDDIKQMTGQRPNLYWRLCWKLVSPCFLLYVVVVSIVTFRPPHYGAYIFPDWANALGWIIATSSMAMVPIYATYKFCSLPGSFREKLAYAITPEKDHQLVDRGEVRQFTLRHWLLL
smiles,measurement,setting,value
CSCC(N)C(=O)O (stereo in doubt) [(S)-methyl-L-cysteine],Ki,dopamine (DA) uptake,> 1000 µM
same,inhibition of System A transporters ([3H]AIB transport),System A transporters,81%
same,Ki,[1],6.6 ± 1.8 µM
